Results taken from patent US20050043262A1, “Novel specific inhibitor of the cyclin kinase inhibitor p21Waf1/Cip1 and methods of using the inhibitor” (priority 2000, published 2005).

Experiments:
cyclinD/cdk4 = assay: Cyclin D1 immunoprecipitation / cdk4 immunoblot in A431 cells; format: cell-based, human; settings: PDGF-BB 30 ng/ml
Text: Cyclin/cdk interactions occur after growth factor stimulation and serve to integrate such responses with the CKIs and transmit them to the Rb/E2F systems, which leads to mitogenic signal transmission. The cyclin D1/cdk 4 interaction occurs early after growth factor stimulation (reviewed in (Arellano and Moreno, 1997 Int. J. Biochem. Cell Biol., 29, p. 559-573)), while the cyclinE/cdk2 interaction occurs late in G1 and is thought to have a role in triggering the actual onset of DNA replication after the cells have passed the restriction point (reviewed in (Sherr and Roberts, 1995: Genes Dev., 9, p. 1149-1163)). A431 cells were transfected with p21^Waf1/Cip1 antisense (SEQ. ID NO.:1) or sense (SEQ. ID NO.:2) oligodeoxynucleotide, allowed to grow overnight in serum-free media, and then stimulated for various times with PDGF-BB. The cells were subsequently immunoprecipitated with either cyclinD1 or cyclinE and immunoblotted with cdk4 or cdk2, respectively. A lysate sample, showing the mobility of the immunoprecipitated cdks, confirmed the identity of the cdks. A431 cells were transfected with antisense (SEQ. ID NO.:1) or sense p21^Waf1/Cip1 (SEQ. ID NO.:2) oligonucleotides. […]

A10 VSM cells = assay: Cell proliferation by counting adherent cells; format: cell-based, rat; settings: after 18 hours of PDGF incubation
Text: Cell culture, DNA synthesis, and proliferation assays: Cultures of both A10 and A7r5 rat aortic VSM cells were obtained from American Type Culture Collection (Rockville Md.). Bovine aortic smooth muscle cells were supplied by Martha O'Donnell (O'Donnell and Owen, 1986 Proc Natl. Acad. Sci.US.A., 83, p. 6132-6136). All of the cell lines were maintained as described (Weiss et al., 1998 Am. J. Physiol., 274, p. C1521-C1529) and were used between passages 15 and 25. The cells were growth-arrested by placing them in serum-free quiescence medium, exposed to growth factors as indicated, and [^3H]thymidine incorporation assessed as previously described (Weiss and Nuccitelli, 1992a J. Biol. Chem., 267, p. 5608-5613). Cell proliferation was assessed by counting of adherent cells on 4 representative fields under 100× magnification in each of 3 wells per experimental condition.
Antisense techniques were employed to examine the dependence of G1-phase progression on p21^Waf1/Cip1 in the VSM cell lines (Crooke, 1993 Antisense research and applications. Boca Raton, CRC.). […] DNA synthesis was assessed by [^3H]-thymidine incorporation and is expressed as mean ± s.e.m. of three wells per data point. […] After 18 hours of PDGF incubation, the cells were counted by examining representative fields at 100× magnification. The average number of cells in 4 random fields in each well was determined.

caspase-3 = assay: Caspase-3 activation (cleavage product) by Western blot in VSM cells; format: cell-based, rat
Experimental: FIGS. 19A and B depict how Caspase-3 is activated by antisense oligonucleotide to p21 but not early after radiation or Adriamycin, as described in Example III, infra. Confluent VSM cells were transfected with oligonucleotide in the concentration indicated, left in serum-containing media overnight, and exposed to (A) ionizing radiation (12 Gy) or (B) Adriamycin where indicated. 4 hours later, activation of caspase-3 was assessed by Western blotting. The arrowhead indicates the cleavage product of caspase-3 signifying its processing as an early step in apoptosis. Wortmannin (wort) is a positive control for apoptosis. […] The experiment shown is representative of two separate experiments.
Western blots: Cells were grown to confluence in 6 cm culture dishes and serum deprived. After transfection and or treatment with appropriate agonist, conditioned medium was removed and saved and the cells were washed with phosphate-buffered saline and lysed in lysis buffer. Both supernatant and cell lysate were normalized to the lysate protein concentrations and Western blotted as described (Weiss R H, et al. Am J Physiol 274:C1521-C1529, 1998).
In order to determine whether the potentiation of ionizing radiation and Adriamycin induced DNA synthesis inhibition by p21 antisense oligonucleotides is accompanied by apoptosis, caspase-3 activation in response to ionizing radiation was examined. Caspase-3 is an effector caspase whose activation (leading to apoptosis) results in a 20 kD cleavage product which can be assessed by Western blotting (McCarthy N J, Evan G I. Curr Top Dev Biol 36:259-278, 1998). This process is an early event in a cascade of reactions which ultimately leads to apoptosis, as is evident by the fact that inactivation of caspase-3 dramatically reduces apoptosis in several cell lines (Woo M, et al. Genes Dev 12:806-819, 1998).
VSM cells were transfected with antisense or control oligonucleotides overnight and then stimulated with ionizing radiation.

5′-GACATCACCAGGATCGGACAT-3′
cyclinD/cdk4 association (cyclinD/cdk4): no change
cell number / cell proliferation (A10 VSM cells): parallel the alterations in DNA synthesis
cell number / cell proliferation (A10 VSM cells; listed as antisense p21^Waf1/Cip1 oligodeoxynucleotide): inhibited
caspase-3 activation (caspase-3; Adriamycin experiment (FIG. 19b)): caspase-3 activation was observed
caspase-3 activation (caspase-3; alone or after ionizing radiation 12 Gy, 4 hours): impressive increase
